Values joined by “and” are separate entries in the source; they are usually repeats but may differ in a detail not shown here. Equal values may be shown once. “Also recorded” adds a separate entry of the source.
What was measured:
[1] = Phase 1 and phase 2 clinical studies of fimepinostat, treatment-emergent adverse events (CTCAE v4.03); type: in vivo, human; conditions: for TEAE Abdominal pain, patients n (%) / TEAE Anemia, patients n (%) / TEAE Arthralgia, patients n (%) / TEAE Back pain, patients n (%) / TEAE Constipation, patients n (%) / TEAE Cough, patients n (%) / TEAE Decreased appetite, patients n (%) / TEAE Diarrhea, patients n (%) / TEAE Dizziness, patients n (%) / TEAE Dyspnea, patients n (%) / TEAE Edema peripheral, patients n (%) / TEAE Fatigue, patients n (%) / TEAE Hypokalemia, patients n (%) / TEAE Hypomagnesaemia, patients n (%) / TEAE Hypophosphatemia, patients n (%) / TEAE Lymphocyte count decreased, patients n (%) / TEAE Nausea, patients n (%) / TEAE Neutropenia, patients n (%) / TEAE Pain in extremity, patients n (%) / TEAE Pyrexia, patients n (%) / TEAE Thrombocytopenia, patients n (%) / TEAE Upper respiratory tract infection, patients n (%) / TEAE Vomiting, patients n (%) / TEAE Weight decreased, patients n (%) / TEAE White blood cell count decreased, patients n (%): intention to treat population (n = 58)
Experimental: (§1) Patients received fimepinostat capsules (Pharmatek Laboratories Inc., San Diego, CA, USA) orally, within 30 minutes of a meal, in 21-day cycles until disease progression was documented or other discontinuation criteria were met. In the phase 2 protocol, change in dose and/or schedule intensity of fimepinostat were allowed as per protocol due to toxicity. Safety and tolerability were assessed by the incidence and severity of adverse events as determined by NCI Common Terminology Criteria for Adverse Events (CTCAE v4.03) in both protocols.
(§2) The intention to-treat-population included al patients from both protocols who received at least one dose of fimepinostat. The evaluable population includes all patients who received at least one dose of study drug (phase 1) or one full cycle of treatment (phase 2) and completed at least one post-baseline disease assessment. Patients were re-staged according to the Revised Response Criteria for Malignant Lymphoma.^18
All patients received fimepinostat 60 mg by mouth 5 days on/2 days off as the starting dose with the exception of 1 patient enrolled in the phase 1 protocol who received 60 mg by mouth three times weekly. Three patients enrolled in the phase 1 protocol received concurrent rituximab.
Treatment-emergent adverse events (TEAE) occurring per patient by highest grade experienced with a frequency of ≥10% are listed in Table 5. The most common TEAE of any grade were diarrhea (72%), nausea (52%) and thrombocytopenia (38%). The most common grade 3 or 4 adverse events were […], neutropenia (15%), diarrhea (12%) and anemia (12%). Three patients experienced grade 5 TEAE: respiratory failure deemed unlikely related to treatment in 1 patient, sepsis deemed not related to treatment in 1 patient and tracheal obstruction deemed not related to treatment in 1 patient. Two non-evaluable patients discontinued treatment due to TEAE: grade 2 vomiting deemed related to treatment occurring in 1 patient and grade 4 hypercalcemia deemed unlikely related to treatment in 1 patient.

[2] = test system: R/R DLBCL/HGBL patients with MYC-altered disease; experiment: Phase 1 and phase 2 clinical studies of fimepinostat, response and survival outcomes; type: in vivo, human
Description: Included subjects were enrolled in either the dose escalation and expansion portion of the phase 1 study evaluating fimepinsotat with or without rituximab (part 1) or the phase 2 study with fimepinostat monotherapy.
For the phase 1/part 1 study, key inclusion criteria were ≥18 years of age with histopathologically confirmed diagnosis of DLBCL or transformed follicular lymphoma (tFL) refractory to or relapsed after at least 2 prior regimens, Eastern Cooperative Oncology Group (ECOG) performance status 0-2, measurable disease on baseline radiographic assessment and adequate hematologic and organ function. Key exclusion criteria were receipt of systemic anti-cancer therapy within 3 weeks of study entry, ongoing treatment with chronic immunosuppressive therapy, active CNS lymphoma and gastrointestinal conditions which may interfere with absorption of fimepinostat. For the phase 2 study, key inclusion criteria were ≥18 years of age with histopathologically confirmed diagnosis of DLBCL, HGBL or tFL refractory to or relapsed after 2-4 prior lines of therapy for the treatment of de novo DLBCL and ineligible for (or failed) autologous or allogeneic stem cell transplant (SCT), Eastern Cooperative Oncology Group (ECOG) performance status 0-1, measurable disease on baseline radiographic assessment, confirmed availability of viable tissue (defined as most recent available archival tumor tissue, or fresh tumor samples) for central laboratory FISH and IHC testing prior to study dosing and adequate hematologic and organ function. Key exclusion criteria were receipt of systemic anti-cancer therapy within 2 weeks of study entry or experimental therapy within 5 terminal half-lives (t1/2) or 4 weeks prior to enrollment, known primary mediastinal, ocular, epidural, testicular or breast lymphoma and current or planned glucocorticoid therapy with the exception of doses ≤10 mg/day prednisolone or equivalent.
as §1, §2
MYC-altered disease was defined as one or more of the following results from central testing of tumor samples: expression of MYC protein in ≥40% of lymphoma cells by immunohistochemical staining (IHC), MYC rearrangement by fluorescence in situ hybridization (FISH) or >2 copies of MYC in by FISH. IHC staining of MYC (rabbit clone Y69) and BCL2 (mouse clone 124) for patients enrolled in the phase 1 study (note MYC FISH was not centrally performed in this study) were performed by Mosaic Laboratories, LLC (Lake Forest, CA, USA). IHC staining of MYC (rabbit clone Y69) and BCL2 (mouse clone 124) as well as FISH with MYC (8q24) and BCL6 (3q27) break apart probes and BCL2 (t(14;18)) fusion probe for patients enrolled in the phase 2 study were performed by NeoGenomics Laboratories, Inc (Fort Myers, FL, USA), with positive cutoff values for MYC rearrangement (>10%), MYC copy number gain (>20%), BCL2 rearrangement (≥0.5%) and BCL6 rearrangement (>10%) as defined per laboratory standard. […]

[3] = test system: DLBCL xenografts with MYC alterations; conditions: cited from earlier work
[4] = test system: DLBCL patients with MYC-altered disease; conditions: 11 evaluable DLBCL patients with MYC-altered disease, phase 1, cited from earlier work
[5] = evaluable population (n = 43), 60 mg by mouth 5 days on/2 days off
[6] = evaluable population (n = 43), estimated
[7] = individual patients achieving partial or complete response (Subject ID 1-9)

## COc1ccc(-c2nc(N3CCOCC3)c3sc(CN(C)c4ncc(C(=O)NO)cn4)cc3n2)cn1 [fimepinostat, Fimepinostat]
[1]; Grade 3
  TEAE Abdominal pain, patients n (%): 3 (5)
  TEAE Anemia, patients n (%): 7 (12)
  TEAE Arthralgia, patients n (%): 0 (0)
  TEAE Back pain, patients n (%): 1 (2)
  TEAE Constipation, patients n (%): 0 (0)
  TEAE Cough, patients n (%): 0 (0)
  TEAE Decreased appetite, patients n (%): 0 (0)
  TEAE Diarrhea, patients n (%): 7 (12)
  TEAE Dizziness, patients n (%): 0 (0)
  TEAE Dyspnea, patients n (%): 3 (5)
  TEAE Edema peripheral, patients n (%): 0 (0)
  TEAE Fatigue, patients n (%): 1 (2)
  TEAE Hypokalemia, patients n (%): 6 (10)
  TEAE Hypomagnesaemia, patients n (%): 0 (0)
  TEAE Hypophosphatemia, patients n (%): 4 (7)
  TEAE Lymphocyte count decreased, patients n (%): 3 (5)
  TEAE Nausea, patients n (%): 0 (0)
  TEAE Neutropenia, patients n (%): 7 (12)
  TEAE Pain in extremity, patients n (%): 1 (2)
  TEAE Pyrexia, patients n (%): 1 (2)
  TEAE Thrombocytopenia, patients n (%): 11 (19)
  TEAE Upper respiratory tract infection, patients n (%): 0 (0)
  TEAE Vomiting, patients n (%): 1 (2)
  TEAE Weight decreased, patients n (%): 1 (2)
  TEAE White blood cell count decreased, patients n (%): 3 (5)
[1]; Grade 4
  TEAE Abdominal pain, patients n (%): 0 (0)
  TEAE Anemia, patients n (%): 0 (0)
  TEAE Arthralgia, patients n (%): 0 (0)
  TEAE Back pain, patients n (%): 0 (0)
  TEAE Constipation, patients n (%): 0 (0)
  TEAE Cough, patients n (%): 0 (0)
  TEAE Decreased appetite, patients n (%): 0 (0)
  TEAE Diarrhea, patients n (%): 0 (0)
  TEAE Dizziness, patients n (%): 0 (0)
  TEAE Dyspnea, patients n (%): 0 (0)
  TEAE Edema peripheral, patients n (%): 0 (0)
  TEAE Fatigue, patients n (%): 0 (0)
  TEAE Hypokalemia, patients n (%): 0 (0)
  TEAE Hypomagnesaemia, patients n (%): 0 (0)
  TEAE Hypophosphatemia, patients n (%): 0 (0)
  TEAE Lymphocyte count decreased, patients n (%): 0 (0)
  TEAE Nausea, patients n (%): 0 (0)
  TEAE Neutropenia, patients n (%): 2 (3)
  TEAE Pain in extremity, patients n (%): 0 (0)
  TEAE Pyrexia, patients n (%): 0 (0)
  TEAE Thrombocytopenia, patients n (%): 3 (5)
  TEAE Upper respiratory tract infection, patients n (%): 0 (0)
  TEAE Vomiting, patients n (%): 0 (0)
  TEAE Weight decreased, patients n (%): 0 (0)
  TEAE White blood cell count decreased, patients n (%): 1 (2)
[1]; Grades 1-2
  TEAE Abdominal pain, patients n (%): 6 (10)
  TEAE Anemia, patients n (%): 6 (10)
  TEAE Arthralgia, patients n (%): 7 (12)
  TEAE Back pain, patients n (%): 5 (9)
  TEAE Constipation, patients n (%): 14 (24)
  TEAE Cough, patients n (%): 9 (16)
  TEAE Decreased appetite, patients n (%): 18 (31)
  TEAE Diarrhea, patients n (%): 35 (60)
  TEAE Dizziness, patients n (%): 8 (14)
  TEAE Dyspnea, patients n (%): 6 (10)
  TEAE Edema peripheral, patients n (%): 6 (10)
  TEAE Fatigue, patients n (%): 18 (31)
  TEAE Hypokalemia, patients n (%): 7 (12)
  TEAE Hypomagnesaemia, patients n (%): 7 (12)
  TEAE Hypophosphatemia, patients n (%): 2 (3)
  TEAE Lymphocyte count decreased, patients n (%): 3 (5)
  TEAE Nausea, patients n (%): 30 (52)
  TEAE Neutropenia, patients n (%): 2 (3)
  TEAE Pain in extremity, patients n (%): 6 (10)
  TEAE Pyrexia, patients n (%): 9 (16)
  TEAE Thrombocytopenia, patients n (%): 8 (14)
  TEAE Upper respiratory tract infection, patients n (%): 6 (10)
  TEAE Vomiting, patients n (%): 15 (26)
  TEAE Weight decreased, patients n (%): 7 (12)
  TEAE White blood cell count decreased, patients n (%): 3 (5)
[1]; TEAE of any grade
  Diarrhea, frequency: 72%
  Nausea, frequency: 52%
  Thrombocytopenia, frequency: 38%
[1]; Total
  TEAE Abdominal pain, patients n (%): 9 (16)
  TEAE Anemia, patients n (%): 13 (22)
  TEAE Arthralgia, patients n (%): 7 (12)
  TEAE Back pain, patients n (%): 6 (10)
  TEAE Constipation, patients n (%): 14 (24)
  TEAE Cough, patients n (%): 9 (16)
  TEAE Decreased appetite, patients n (%): 18 (31)
  TEAE Diarrhea, patients n (%): 42 (72)
  TEAE Dizziness, patients n (%): 8 (14)
  TEAE Dyspnea, patients n (%): 9 (16)
  TEAE Edema peripheral, patients n (%): 6 (10)
  TEAE Fatigue, patients n (%): 19 (33)
  TEAE Hypokalemia, patients n (%): 13 (22)
  TEAE Hypomagnesaemia, patients n (%): 7 (12)
  TEAE Hypophosphatemia, patients n (%): 6 (10)
  TEAE Lymphocyte count decreased, patients n (%): 6 (10)
  TEAE Nausea, patients n (%): 30 (52)
  TEAE Neutropenia, patients n (%): 11 (19)
  TEAE Pain in extremity, patients n (%): 7 (12)
  TEAE Pyrexia, patients n (%): 10 (17)
  TEAE Thrombocytopenia, patients n (%): 22 (38)
  TEAE Upper respiratory tract infection, patients n (%): 6 (10)
  TEAE Vomiting, patients n (%): 16 (28)
  TEAE Weight decreased, patients n (%): 8 (14)
  TEAE White blood cell count decreased, patients n (%): 7 (12)
[1]; grade 2 vomiting (related), grade 4 hypercalcemia (unlikely related)
  Non-evaluable patients who discontinued treatment due to TEAE, number: Two
[1]; grade 3 or 4
  Anemia, frequency: 12%
  Diarrhea, frequency: 12%
  Most common grade 3 or 4 adverse event (event name not given), frequency: 24%
  Neutropenia, frequency: 15%
[1]; respiratory failure, sepsis, tracheal obstruction, unlikely or not related to treatment
  Patients who experienced grade 5 TEAE, number: Three
[2]; 9 responding patients
  Responding patients who remained on treatment for over 2 years without disease progression, number: 4
[2]; evaluable population (n = 43)
  Overall response rate: 21%
  Overall response, number of patients: 9
  Partial response, number of patients: 3
  Progressive disease, number of patients: 26
[2]; [5]
  Complete response, % of patients: 14%
  Complete response, number of patients: 6
[2]; [6]
  Alive at 6 months: 54% (95% CI 37-68%)
  Progression free at 6 months: 18% (95% CI 8-31%)
[2]; [7]
  DOR (duration of response): 30.0 months and 24.4 months and 23.8 months and 1.0/1.0 months and 4.2 months and 4.1 months (2×) and 2.8 months and 40.5 months
  Status at end of study: Alive; also recorded: Deceased
  TTR (time to response): 2.7 months and 2.8 months (3×) and 1.0/1.0 months and 1.3 months (2×) and 4.0 months and 1.2 months
[2]; responding patients of evaluable population
  Median duration of response: Not yet reached (95% CI 1.4 months-
[3]
  Preclinical activity compared to HDAC or PI3K inhibitor monotherapy: superior preclinical activity
[4]; central or local testing
  Overall response rate: 64%
[4]
  Estimated duration of response: 13.6 month

— patent publication US20240044899A1, “BIOMARKERS FOR FIMEPINOSTAT THERAPY” (Curis, Inc, priority 2021, published 2024)
